These results are taken from publication PMC10761660, “Preclinical evaluation of an ^18F-labeled N^ε-acryloyllysine piperazide for covalent targeting of transglutaminase 2” (EJNMMI Radiopharmacy and Chemistry, 2024).

One data set in a line: Liver microsome assay. It is filed as in vitro ADME, murine. The note with it: 40 µM, after 60 min. As to the method: Microsome experiments with [^18F]7b in the presence of NADPH were performed according to the procedure recently described by us with slight modifications (Lemm et al. [2022]). […] [^18F]7b dissolved in 0.5% ethanol/PBS (100 µL; 0.2% ethanol final, e.g. 108 MBq/mL or 4.1 µM final) was mixed with PBS (112.5 µL) and murine liver microsomes (MLM, 12.5 µL of 20 mg/mL stock; 1 mg/mL final; Gibco™ Cat. No. MSMCPL, Lot. No. MS053-A) in a 1.5 mL Eppendorf tube and the mixture was warmed for 5 min at 37 °C. Subsequently, NADPH (25 µL of freshly prepared 20 mM solution in PBS, 2 mM final) was added and the mixture was incubated at 37 °C. As a control incubation, the NADPH solution was replaced by PBS. At distinct time points (5, 10, 15, 30, and 60 min), an aliquot (40 µL) was withdrawn and added to ice-cold CH3CN (160 µL). The mixture was vortexed for 30 s, stored on ice for 4 min and centrifuged (5 min at 16,100 × g). The resulting supernatant was used for radio-HPLC and radio-TLC analyses. For radio-HPLC, the Shimadzu Nexera X2 UHPLC system described above including the conditions for analysis was used. Radio-TLC was carried out on reversed-phase TLC plates (ALUGRAM RP-18W/UV254 from Macherey–Nagel, Düren, Germany) with a mobile phase of 40% CH3CN in water containing 0.1% trifluoroacetic acid. Visualization of radioactive spots and subsequent analysis was conducted as described above.
Testosterone (40 µM final) was used as positive control for the activity of the MLM and was separately treated and analyzed after incubation times of 5, 10, 15, 30, and 60 min as described above (0% ethanol final; HPLC gradient profile: 45% eluent B for 10 min followed by washing of the column with 45% to 95% eluent B in 1 min, 95% eluent B for 5 min, 95% to 45% eluent B in 1 min, 45% eluent B for 8 min; total time of 25 min).
For that, solutions of [^18F]7b in 0.5% ethanol/PBS (10 µL; 0.1% ethanol final, 17 MBq/mL or 1.14 µM final) were mixed with the respective tenfold concentrated solutions of 7b dissolved in 10% DMSO/PBS (5 µL, 1% DMSO final and 5/10/20/40/80 µM of 7b final), PBS (27.5 µL) and murine liver microsomes (2.5 µL of 20 mg/mL stock) in a 1.5 mL Eppendorf tube and the mixture was warmed for 5 min at 37 °C. Subsequently, NADPH (5 µL of freshly prepared 20 mM solution in PBS, 2 mM final) was added and the mixture was incubated at 37 °C. At distinct time points (5, 10, 15, 20, and 30 min), an aliquot (5 µL) was withdrawn and added to ice-cold CH3CN (40 µL). The subsequent steps were performed as described above including analysis by radio-TLC.
For the t1/2 approach at n.c.a. level, the obtained fractions of intact [^18F]7b (by radio-HPLC or radio-TLC analysis) were plotted against the time. Nonlinear regression was performed by one-phase decay (equation 1) as implemented in GraphPad Prism (GraphPad Prism 9.5.1.733), which provided the t1/2 values. The fraction at X = 0 min, Y0, was constrained to 1.0.1 Y0=Y0-Plateau×e^-k×X+Plateau
Subsequently, the intrinsic clearance, CLint (mL*min^−1*kg^−1), was calculated using equation 2 (Obach et al. [1997]; Schneider et al. [2019])2 CLint=ln2/t1/2min×fuinc×1/MLM(mg/mL)×microsomalprotein/liverweightmg/g×liverweight/bodyweightg/kg with the scaling factors of 60.1 mg/g (microsomal protein/liver weight for rats as no value for mice could be found) (Carlile et al. [1997]) and 87.5 g/kg (liver weight/body weight for mice) (Davies and Morris [1993]). The concentration of the MLMs was 1 mg/mL.
For the Vmax/Km approach, the obtained fractions of intact [^18F]7b (by radio-TLC analysis) were plotted against the time (fraction plot). The concentration plot was obtained by transformation of the fractions into concentrations of 7b by taking the experimentally determined molar activity of [^18F]7b into account (i.e. final concentration of 1.14, 6.16, 11.14, 21.14, 41.14, and 81.14 µM for 7b in the performed experiments). Both plots were analyzed by nonlinear regression according to one-phase decay (equation 1). […]
For orientation: Liver microsomes are a subcellular fraction often used to study metabolism.

Details of data set [1]: method as in Schuppan et al. [2021]. The note with it: patients with celiac disease; ref Schuppan et al. [2021]; cited from earlier work.

As for `C[C@]12CC[C@H]3[C@@H](CCC4=CC(=O)CC[C@@]43C)[C@@H]1CC[C@@H]2O` [Testosterone, reference compound], the “consumption of positive control by MLM” value in the data set “Liver microsome assay” was “completely consumed”.

As for `CCC(CC)CNC(=O)Cn1cccc(NC(=O)[C@H](CC/C=C/C(=O)OC)NC(=O)c2cncn2C)c1=O` [ZED1227], in data set [1], the “effect on duodenal mucosa” value is on record as “attenuated damage of the duodenal mucosa” and the tolerability entry was “well-tolerated”.
